Measurements as given in patent US9476099B2 (TRUSTEES OF DARTMOUTH COLLEGE, priority 2012, dated 2016).

Experiments:
NT2/D1-R1 cells = test: Cisplatin sensitivity (cell viability) after low dose decitabine pretreatment; type: cell-based; conditions: 10 nM 3 days, 24 hour recovery, cisplatin 6 hours, viability 3 days later
Description: (§1) Cell viability was assayed 3 days later. For NT2D1-R1 cells, 10 nM decitabineR was employed. […] Data are the average of biological triplicates and representative of at least two experiments. Error bars are standard error of the mean (SEM).
(§2) Cell viability was assayed 3 days later. For NT2D1-R1 cells, 10 nM decitabineR was employed. […] Data are the average of biological triplicates and representative of at least two experiments. Error bars are SEM.
(§3) Five distinct lentiviral shRNAs for DNMT3B (sh84, sh85, sh86, sh87, and sh88) were used to knock down DNMT3B expression. Six potential alternatively spliced isoforms of DNMT3B exist; the most biologically relevant isoforms are variants 1, 2, 3 and 6 (Jones, P. A. and S. B. Baylin. 2007. Cell 128:683-692). […] Western blot analysis of NT2/D1 and NT2/D1-R1 cells was also performed with cells treated with DNMT3B shRNA ([…]) and employing DNMT3B antibody, H-230. The results confirmed the reduced expression of DNMT3B when the shRNA were employed. None of the DNMT3B-specific shRNAs affected levels of DNMT1 or DNMT3A (FIG. 2). […] However, knockdown of DNMT3B by itself had no apparent effect on the growth of NT2/D1 or NT2/D1-R1 cells. […] It had been previously reported that cisplatin causes a global p53-dominant transcriptional response in EC cells (Kerley-Hamilton et al. 2005. Oncogene 24:6090-6100). […]

833K-CP cells = test: as above; type: cell-based; conditions: 2.5 nM 3 days, 24 hour recovery, cisplatin 6 hours, viability 3 days later
Description: as §1, §2, §3

[1] = test system: gene promoters in NT2/D1 cells; test: Global DNA promoter methylation analysis, HumanMethylation27 BeadChip; type: cell-based, human; conditions: 3 day low dose decitabine
Description: (§4) However, methylation changes were less robust in the experiments in NT2/D1 cells. Only 12 genes were identified as having significant decreases in promoter methylation. […] These six genes included RIN1, SOX15, TLR4, GPER, TRIM54, and CD164L2.
DNA methylation analysis was performed in samples in triplicate using the […] […] assay with the HumanMethylation27 BeadChip ([…]) and the BeadChip was scanned on the BeadArray Reader ([…]), according to the manufacturer's instructions. Raw data was normalized and analyzed with Genome Studio software ([…]). The HumanMethylation27 BeadChip assays 27,578 CpGs covering more than 14,000 genes, mostly from promoter regions. […] Hierarchical clustering was performed as stated above. HumanMethylation27 BeadChip data and gene expression microarray data were submitted to NCBI GEO.

[2] = test system: NT2/D1 and NT2/D1-R1 cells expressing DNMT3B-targeting shRNAs; test: Decitabine dose-response in DNMT3B shRNA knockdown EC cells; type: cell-based, human
Description: Data are the average of biological triplicates and are representative of at least two experiments. Error bars are S.D.
Viable cell growth and survival were measured. Data was normalized to no drug treatment. Error bars (within symbols) are standard deviation. * p=<0.05 compared to untreated controls.
as §3
Cells were cultured in DMEM media (Gibco) with 10% FBS. […] Cell proliferation and survival were assessed with the CELL-TITRE GLO assay (Promega). […]

[3] = test system: RIN1, SOX15 and TLR4 promoter in NT2/D1 cells; test: Promoter specific bisulfite pyrosequencing; type: cell-based; conditions: 10 nM, 3 days, FIG. 13
Description: The graph depicts an average of triplicate sample determinations. Error bars are standard deviation. **=p<0.005. SOX15 values represent the average methylation value across two CpG sites. RIN1 and TRL4 values represent the average methylation across three CpG sites.
as §4
Genomic DNA was isolated with the QIAMP DNA mini kit (Qiagen) and bisulfite converted with the EZ DNA methylation kit (Zymo Research). DNA was amplified with HOTSTARTAQ plus DNA polymerase (Qiagen). The LINE-1 pyrosequencing assay averages across four CpG sites and has been described previously (Kashiwagi et al. 2011. Nucleic Acids Res. 39:874-888). Pyrosequencing assays for RIN1, SOX15, and TLR4 were designed with PyroMark assay design software (Qiagen) to sequence across corresponding probes cg0599842, cg02515422 and cg13098960 on the HumanMethylation27 BeadChip.

Nc1ncn([C@H]2C[C@H](O)[C@@H](CO)O2)c(=O)n1 [decitabine, 5-aza-deoxycytidine]
effect of low dose decitabine pretreatment on cisplatin-induced growth suppression and toxicity (NT2/D1-R1 cells): restored cisplatin-induced growth suppression and toxicity | effect of low dose decitabine pretreatment on cisplatin-induced growth suppression and toxicity (833K-CP cells): restored cisplatin-induced growth suppression and toxicity | genes with significant decreases in promoter methylation [1]: 12 genes | effect of DNMT3B knockdown on response to low-dose 3 day decitabine treatment compared to sh-control cells ([2]; NT2/D1-R1 shDNMT3B, FIG. 11): extensive resistance | decitabine sensitivity of cells expressing DNMT3B-targeting shRNAs compared to control cells ([2]; NT2/D1 sh84, NT2/D1-R1 sh84, sh85, sh86, 3 day treatment, FIG. 3): dramatic reduction of decitabine sensitivity | promoter methylation of RIN1, SOX15 and TLR4 (bisulfite pyrosequencing) [3]: decreased promoter methylation
